Where a name gives a salt, the structure may show the parent alone. Read-outs that look alike come from different tables or passages of the source.
Tests used:
[1] = system: HCV subgenomic replicon in Huh-7 cells; assay: Replicon assay, EC50 luciferase readout; type: cell-based, hepatitis C virus (HCV); settings: single value, or second value of a pair x:y
In short: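 Huh-7 cells carrying a subgenomic HCV replicon (NS3-NS5b, firefly luciferase-neo fusion) were treated with compound for 72 h at 37°C, 5% CO2. EC50 derived from Bright-Glo luciferase signal as a proxy for HCV RNA; cell viability measured in parallel by Alamar blue.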

[2] = target: T1, HCV NS3 protease (full length NS34a) (Hepatitis C virus genotype 1b, UniProt P26663); assay: HCV NS3 protease assay (FRET, full length NS34a); type: biochemical
T1 construct: The protease activity of the full length NS34a was measured using a FRET-based assay; made in house
In short: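 Full-length NS34a incubated with compound and an NS4AB cleavage-site FRET peptide (QXL520 quencher, 5-FAMsp fluorophore) in 50 mM Tris pH8, 20 mM DTT, 1% CHAPS, 10% glycerol, 5% DMSO. Fluorescence followed for 30 minutes at room temperature; IC50 from initial rates of replicate progress curves.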

[3] = Hepatitis C virus, Huh-7, 72 h, Huh-7 replicon cells, 72 h, read-out: Activity EC50 (μM) (EC50 luciferase readout)
[4] = IC50 values of 10-150 μM against the protease activity of the full length NS34a, or at least 40% inhibition of protease activity at a concentration of 100 μM
[5] = protease activity of full length NS34a, FRET peptide substrate, read-out: Activity IC50

T1 sequence (P26663 1658-1711): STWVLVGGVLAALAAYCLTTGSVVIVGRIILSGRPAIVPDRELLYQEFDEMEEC
T1 sequence (P26663 1027-1657): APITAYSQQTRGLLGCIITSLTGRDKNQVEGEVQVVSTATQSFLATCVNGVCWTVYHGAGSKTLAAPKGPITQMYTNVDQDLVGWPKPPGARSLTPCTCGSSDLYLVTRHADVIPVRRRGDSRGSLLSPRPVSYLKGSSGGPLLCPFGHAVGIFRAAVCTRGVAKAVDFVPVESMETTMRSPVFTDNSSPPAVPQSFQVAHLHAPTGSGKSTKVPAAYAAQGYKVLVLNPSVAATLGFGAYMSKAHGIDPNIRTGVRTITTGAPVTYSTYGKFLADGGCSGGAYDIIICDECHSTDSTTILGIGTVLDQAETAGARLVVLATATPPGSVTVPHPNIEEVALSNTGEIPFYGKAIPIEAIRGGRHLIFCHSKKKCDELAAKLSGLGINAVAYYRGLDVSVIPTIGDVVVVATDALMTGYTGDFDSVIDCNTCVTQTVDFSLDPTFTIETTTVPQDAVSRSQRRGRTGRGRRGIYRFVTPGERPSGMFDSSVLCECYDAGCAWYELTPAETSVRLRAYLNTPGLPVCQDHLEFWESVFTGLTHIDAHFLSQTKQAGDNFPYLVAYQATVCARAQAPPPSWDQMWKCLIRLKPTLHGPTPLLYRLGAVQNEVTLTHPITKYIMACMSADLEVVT

SMILES	EC50 [1, 3]	IC50 [2, 5]	also measured
C[C@H](CO)N[C@H](CC1CCNCC1)c1ccc(F)c(Oc2ccccc2)c1F [Example 90]	0.36 µM		IC50 [2, 4]: 10 to 150 µM
CCC(NC(C)c1c[nH]cn1)c1ccc(F)c(Oc2ccccc2)c1F (stereo not shown) [Example 67]	> 30 µM	3.4 µM	
CC[C@@H](N[C@@H](C)CC(N)=O)c1ccc(Cl)c(Oc2ccc(C#N)c(OC)c2)c1F [Example 210]		0.16 µM	EC50 ([1]; Hepatitis C virus, Huh-7, 72 h, read-out: Activity EC50 (μM) (EC50 luciferase readout), Huh-7 replicon cells, 72 h): 0.2 µM
CC[C@@H](N[C@@H](C)CC(N)=O)c1ccc(Cl)c(Oc2cccc(NS(C)(=O)=O)c2)c1F [Example 196]	0.27 µM	0.42 µM	
CC[C@@H](N[C@H](C)CC(=O)NCCN)c1ccc(Cl)c(Oc2ccccc2)c1F [Example 223, (R)—N-(2-Amino-ethyl)-3-[(R)-1-(4-chloro-2-fluoro-3-phenoxy-phenyl)-propylamino]-butyramide.dihydrochloride]	> 30 µM		IC50 ([2]; Activity IC50 (μM), protease activity of full length NS34a, FRET peptide substrate): 0.081 µM
CC(CO)NC(c1ccc(F)c(Oc2ccccc2)c1F)C1CCNCC1 (single isomer, unassigned) [Example 76, 2-{[(2,4-Difluoro-3-phenoxy-phenyl)-piperidin-4-yl-methyl]-amino}-propan-1-ol.dihydrochloride]		2.9 µM	EC50 ([1]; Huh-7 replicon cells, 72 h, read-out: Activity EC50 (μM) (EC50 luciferase readout)): 6 µM
OCCN[C@H](CC1CCNCC1)c1ccc(F)c(Oc2ccccc2)c1F [Example 87B, 2-[(R)-1-(2,4-Difluoro-3-phenoxy-phenyl)-2-piperidin-4-yl-ethylamino]-ethanol]	3.9 µM		IC50 [2, 4]: 10 to 150 µM
CC[C@H](Nc1ncc[nH]1)c1ccc(Cl)c(Oc2ccccc2)c1F [Example 275, [(S)-1-(4-Chloro-2-fluoro-3-phenoxy-phenyl)-propyl]-(1H-imidazol-2-yl)-amine.hydrochloride]	> 10 µM	0.41 µM	
CCC(NC1CCCNC1)c1ccc(F)c(Oc2ccccc2)c1F (stereo not shown) [Example 17]	2.8 µM		IC50 [2, 4]: 10 to 150 µM
N[C@@H](c1ccc(F)c(Oc2ccccc2)c1F)[C@H]1CCC(=O)NC1 [Example 74A]	> 30 µM		IC50 [2, 4]: 10 to 150 µM
Cc1cc(Oc2c(F)ccc(CN[C@H]3CC[C@@H](N)CC3)c2F)ccc1N [Example 288]	1.4 µM	1.4 µM	
CC[C@@H](N[C@@H](C)CC(=O)NC1COC1)c1ccc(Cl)c(Oc2ccccc2)c1F [Example 222]	> 10 µM	0.37 µM	
CC[C@@H](N[C@@H](C)CC(=O)NOC)c1ccc(Cl)c(Oc2ccccc2)c1F [Example 155]	> 10 µM	1.7 µM	
CC[C@@H](N[C@@H](C)c1cc[nH]c1)c1ccc(Cl)c(Oc2ccccc2)c1F [Example 164]	2.3 µM	0.27 µM	
CC(C)CC(N)c1ccc(F)c(Oc2ccccc2)c1F (stereo not shown) [Example 2]	2.4 µM	2.2 µM	
CCC[C@H](N)c1ccc(Cl)c(Oc2ccccc2)c1F [Example 119]	3.4 µM	0.32 µM	
CC[C@@H](N)c1ccc(F)c(Oc2ccccc2)c1F [Example 11]	0.8 µM	2.2 µM	
CC[C@@H](N[C@@H](C)CC(N)=O)c1ccc(Cl)c(Oc2cccc(CO)c2)c1F [Example 116]	0.19 µM	0.13 µM	
CC(C)NCC(N)c1ccc(F)c(Oc2ccccc2)c1F (stereo not shown) [Example 19, 1-(2,4-Difluoro-3-phenoxy-phenyl)-N*2*-isopropyl-ethane-1,2-diamine. dihydrochloride]	10 µM	9.8 µM	
CC[C@@H](N[C@@H](C)CC(N)=O)c1ccc(Cl)c(Oc2ccc([N+](=O)[O-])c(OC)c2)c1F [Example 253]	0.13 µM	0.41 µM	
CC(C)C(N)c1ccc(F)c(Oc2ccccc2)c1F (stereo not shown) [Example 1, 1-(2,4-Difluoro-3-phenoxy-phenyl)-2-methyl-propylamine. hydrochloride]	15 µM	2.5 µM	
Cc1cc(Oc2c(F)ccc(CNc3ccncc3)c2F)ccc1N [Example 225B, [3-(4-Amino-3-methyl-phenoxy)-2,4-difluoro-benzyl]-pyridin-4-yl-amine. hydrochloride]	0.68 µM	0.73 µM	
CC[C@H](Nc1cccc2c1CNCC2)c1ccc(F)c(Oc2ccccc2)c1F [Example 137]	7.8 µM	0.45 µM	
CC[C@@H](N[C@@H](C)CO)c1ccc(F)c(Oc2ccccc2)c1F [Example 57]	29 µM		IC50 [2, 4]: 10 to 150 µM
CCC(NCC1CCNCC1)c1ccc(F)c(Oc2ccccc2)c1F (stereo not shown) [Example 29]	0.47 µM	4.4 µM	
CC[C@@H](N[C@@H](C)CC(N)=O)c1ccc(Cl)c(Oc2ccc(-c3cnco3)c(C)c2)c1F [Example 317]	2.7 µM	0.45 µM	

SMILES	EC50 [1, 3]	IC50 [2, 5]	also measured
CC[C@H](N[C@@H](C)CC(N)=O)c1ccc(Cl)c(Oc2ccccc2)c1F [Example 79, (S)-3-[(S)-1-(4-Chloro-2-fluoro-3-phenoxy-phenyl)-propylamino]-butyramide.hydrochloride]	> 10 µM	0.31 µM	
CC[C@@H](N[C@@H](C)CC(N)=O)c1ccc(Cl)c(Oc2ccc(N)c(OC)c2)c1F [Example 255]	0.012 µM	0.23 µM	
CC[C@H](N)c1ccc(Cl)c(Oc2ccc(N)nc2)c1F [Example 114]	> 10 µM	1 µM	
NC(C1=CCNCC1)c1ccc(F)c(Oc2ccccc2)c1F (stereo not shown) [Example 13, C-(2,4-Difluoro-3-phenoxy-phenyl)-C-(1,2,3,6-tetrahydro-pyridin-4-yl)-methylamine. dihydrochloride]	2 µM	3.1 µM	
CCC(NC1CCC1)c1ccc(F)c(Oc2ccccc2)c1F (stereo not shown) [Example 44]	9.9 µM	4.7 µM	
CC[C@@H](N[C@@H](C)CC(=O)NC1CNC1)c1ccc(Cl)c(Oc2ccccc2)c1F [Example 234]	7.3 µM		inhibition at 0.03 µM ([2]; read-out: Activity % inhibition @ 0.03 μM, 0.03 μM compound): 57%
CC[C@@H](N[C@@H](C)CC(=O)NC)c1ccc(Cl)c(Oc2ccccc2)c1F [Example 131A, (S)-3-[(R)-1-(4-Chloro-2-fluoro-3-phenoxy-phenyl)-propylamino]-N-methyl-butyramide.hydrochloride]	> 10 µM	1.2 µM	
CCC[C@@H](N)c1ccc(Cl)c(Oc2ccccc2)c1F [Example 118]	4.4 µM	1.7 µM	
CC[C@@H](N[C@@H](C)CC(N)=O)c1ccc(Cl)c(Oc2ccc(N)nc2)c1F [Example 124]	0.28 µM	0.11 µM	
CC[C@@H](N[C@@H](C)CC(=O)N[C@@H]1CCNC1)c1ccc(Cl)c(Oc2ccccc2)c1F [Example 263]	1.6 µM	0.39 µM	
CC[C@@H](N[C@@H](C)CC(N)=O)c1ccc(Cl)c(Oc2ccc(C#N)cc2)c1F [Example 186]	0.13 µM	0.039 µM	
N[C@H]1CC[C@H](CNCc2ccc(Cl)c(Oc3ccccc3)c2F)CC1 [Example 289]	0.18 µM	1.1 µM	
CC[C@@H](N[C@@H](C)CC(=O)N1CCCNCC1)c1ccc(Cl)c(Oc2ccccc2)c1F [Example 236]	1.7 µM		IC50 [2, 4]: 10 to 150 µM; inhibition at 3 µM ([2]; read-out: Activity % inhibition @ 3 μM, 3 μM compound): 50%
CC[C@@H](N[C@H](C)CO)c1ccc(F)c(Oc2ccccc2)c1F [Example 58]	27 µM	1 µM	
NC(C1=NCCN1)c1ccc(F)c(Oc2ccccc2)c1F (stereo not shown) [Example 50, C-(2,4-Difluoro-3-phenoxy-phenyl)-C-(4,5-dihydro-1H-imidazol-2-yl)-methylamine.dihydrobromide]	23 µM		IC50 [2, 4]: 10 to 150 µM
CC[C@H](N)c1ccc(Cl)c(Oc2ccccc2)c1F [Example 77]	12 µM	0.59 µM	
CC[C@@H](N)c1ccc(Cl)c(Oc2ccc(C#N)c(C)c2)c1F [Example 221]	> 30 µM	0.43 µM	
C#Cc1ccc(Oc2c(Cl)ccc([C@@H](CC)N[C@@H](C)CC(N)=O)c2F)cc1 [Example 230]	0.48 µM	0.17 µM	
N[C@H]1CC[C@H](NCc2cccc(Oc3ccccc3)c2)CC1 [Example 280]	0.4 µM	5.3 µM	
CC[C@@H](N[C@H](CC(N)=O)C(C)C)c1ccc(Cl)c(Oc2ccccc2)c1F [Example 143]	6.2 µM	0.54 µM	
CC[C@@H](N[C@@H](C)CC(=O)N[C@H]1C[C@H](N)C1)c1ccc(Cl)c(Oc2ccccc2)c1F [Example 319]	8.6 µM	3.5 µM	
CC[C@@H](N[C@@H](C)CC(=O)N1CCNCC1)c1ccc(Cl)c(Oc2ccccc2)c1F [Example 235]	0.6 µM	0.43 µM	
CC[C@@H](N[C@H](C)CC(N)=O)c1ccc(Cl)c(Oc2ccc(N)nc2)c1F [Example 123]	4.7 µM	1.6 µM	
CC[C@@H](N[C@@H](C)CC(N)=O)c1ccc(Cl)c(Oc2cccc(C#N)c2)c1F [Example 226]	2.9 µM	0.2 µM	
CNC(CC(C)C)c1ccc(F)c(Oc2ccccc2)c1F (stereo not shown) [Example 16, [1-(2,4-Difluoro-3-phenoxy-phenyl)-3-methyl-butyl]-methyl-amine. hydrochloride]	0.58 µM	4 µM	

— patent publication US20140288040A1, “SUBSTITUTED BENZYLAMINE COMPOUNDS, THEIR USE IN MEDICINE, AND IN PARTICULAR THE TREATMENT OF HEPATITIS C VIRUS (HCV) INFECTION” (ASTEX THERAPEUTICS LIMITED, priority 2011, published 2014)
